Test results reported in patent US11584714B2 (priority 2018, dated 2023).
Structures can show the parent of a compound that is named as a salt. Where two headings read alike, the source gives them in different places.

What was measured:
Assay type in all cases: biochemical
MASP-2 (CCP1-CCP2-SP) = MASP-2 (CCP1-CCP2-SP) (Homo sapiens (Human), UniProt O00187); assay: biochemical
mMASP-2 = mMASP-2 (Mus musculus (Mouse), UniProt Q91WP0); assay: Enzymatic inhibition of mMASP-2; details: read-out: mMASP-2 Ki
Chain of mMASP-2 (Q91WP0 20-685): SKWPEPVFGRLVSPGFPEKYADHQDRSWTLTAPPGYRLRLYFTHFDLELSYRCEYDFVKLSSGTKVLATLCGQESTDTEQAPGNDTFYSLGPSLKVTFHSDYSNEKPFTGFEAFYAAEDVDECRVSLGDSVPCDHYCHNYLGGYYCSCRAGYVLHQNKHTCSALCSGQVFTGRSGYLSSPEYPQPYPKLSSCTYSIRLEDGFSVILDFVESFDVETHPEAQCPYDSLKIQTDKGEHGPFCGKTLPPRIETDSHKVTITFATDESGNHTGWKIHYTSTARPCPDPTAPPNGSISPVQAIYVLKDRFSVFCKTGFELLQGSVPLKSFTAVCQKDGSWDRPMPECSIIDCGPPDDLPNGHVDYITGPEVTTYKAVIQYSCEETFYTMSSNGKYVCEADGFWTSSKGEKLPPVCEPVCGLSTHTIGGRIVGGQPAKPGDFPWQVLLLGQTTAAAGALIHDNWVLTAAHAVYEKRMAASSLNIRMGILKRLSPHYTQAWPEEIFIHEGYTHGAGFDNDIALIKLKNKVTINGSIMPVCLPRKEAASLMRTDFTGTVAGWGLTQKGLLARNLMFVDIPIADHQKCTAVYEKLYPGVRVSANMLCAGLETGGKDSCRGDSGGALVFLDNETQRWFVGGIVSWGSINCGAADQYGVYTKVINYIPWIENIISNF

human α-thrombin = human α-thrombin (Homo sapiens (Human), UniProt P00734); assay: Enzymatic assay for thrombin (Boc-VPR-AMC substrate)
[1] = selectivity for MASP-2 inhibition versus thrombin

Chain of MASP-2 (CCP1-CCP2-SP) (O00187 445-686): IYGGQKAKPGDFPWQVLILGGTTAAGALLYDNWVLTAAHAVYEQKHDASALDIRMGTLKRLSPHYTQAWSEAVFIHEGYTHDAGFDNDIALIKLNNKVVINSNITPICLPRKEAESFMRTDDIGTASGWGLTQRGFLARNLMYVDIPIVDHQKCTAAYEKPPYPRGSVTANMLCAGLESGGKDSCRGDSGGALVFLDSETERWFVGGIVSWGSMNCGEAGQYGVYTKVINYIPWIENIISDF

Molecule | Ki (MASP-2 (CCP1-CCP2-SP); read-out: MASP-2 Ki) | Ki (mMASP-2) | Ki (human α-thrombin; read-out: Thrombin Ki) | Ki (MASP-2 (CCP1-CCP2-SP)) | MASP-2 vs. thrombin selectivity (MASP-2 (CCP1-CCP2-SP); [1]) | MASP-2 vs. thrombin selectivity (MASP-2 (CCP1-CCP2-SP); MASP-2 inhibition versus thrombin) | Ki (human α-thrombin; Thrombin Ki (μM))
Cc1nc(N)ccc1CNC(=O)[C@H](C)NC(=O)[C@H]1C[C@@H](c2cccc3ccccc23)CCN1 [compound 1297, (2R,4S)—N—((S)-1-(((6-Amino-2-methylpyridin-3-yl)methyl)amino)-1-oxopropan-2-yl)-4-(naphthalen-1-yl)piperidine-2-carboxamide Dihydrochloride] | < 500 nM | < 500 nM |  |  |  |  | 
C[C@H](NC(=O)[C@H]1C[C@H](c2ccccc2)CN1)C(=O)NCc1cnc2[nH]ccc2c1 [compound 1311, (2R,4R)—N—((S)-1-(((1H-Pyrrolo[2,3-b]pyridin-5-yl)methyl)amino)-1-oxopropan-2-yl)-4-phenylpyrrolidine-2-carboxamide Dihydrochloride] |  | 2500 to 10000 nM | > 25 µM | 2500 to 10000 nM | * (≥1.0 to <5.0-fold) |  | 
COc1ccccc1CC[C@@H](N)C(=O)N[C@@H](C)C(=O)NCc1ccc(C(=N)N)cc1 [compound 1074] | < 500 nM | < 500 nM | < 0.5 µM |  |  | ** (5.0 to 25-fold) | 
C[C@H](NC(=O)[C@H]1C[C@H](Cc2ccccc2)CN1)C(=O)NCc1cc2cnccc2[nH]1 [compound 1472, (2R,4S)—N—((S)-1-(((1H-Pyrrolo[3,2-c]pyridin-2-yl)methyl)amino)-1-oxopropan-2-yl)-4-benzylpyrrolidine-2-carboxamide Di-trifluoroacetate salt] | < 500 nM | < 500 nM |  |  | **** (≥100-fold) |  | 2.5 to 10 µM
C[C@H](NC(=O)[C@H]1C[C@H](c2ccccc2)CN1)C(=O)NCC1CCc2nc(N)sc2C1 (stereo partly drawn) [compound 1281, (2R,4R)—N-((2S)-1-(((2-Amino-4,5,6,7-tetrahydrobenzo[d]thiazol-6-yl)methyl)amino)-1-oxopropan-2-yl)-4-phenylpyrrolidine-2-carboxamide] |  | > 25000 nM | > 25 µM | 2500 to 10000 nM |  |  | 
Cc1cc(Cl)cc(CNC(=O)[C@H](C)NC(=O)[C@H]2C[C@H](Cc3ccccc3-c3ccccc3)CN2)c1O [compound 1401, (2R,4S)-4-([1,1′-Biphenyl]-2-ylmethyl)-N-((S)-1-((5-chloro-2-hydroxy-3-methylbenzyl)amino)-1-oxopropan-2-yl)pyrrolidine-2-carboxamide Hydrochloride] | < 500 nM | 500 to 2500 nM | > 25 µM |  |  |  | 
C[C@H](NC(=O)[C@H]1C[C@H](Cc2ccc(-c3cccnc3)cc2)CN1)C(=O)NCc1cc(Cl)ccc1-n1cnnn1 [compound 1404, (2R,4S)—N—((S)-1-((5-Chloro-2-(1H-tetrazol-1-yl)benzyl)amino)-1-oxopropan-2-yl)-4-(4-(pyridin-3-yl)benzyl)pyrrolidine-2-carboxamide Hydrochloride] | < 500 nM | < 500 nM | < 0.5 µM |  | ** (≥5.0 to <25-fold) |  | 
C[C@H](NC(=O)[C@H]1C[C@H](c2ccccc2)CN1)C(=O)NCc1cc(Cl)cnc1N [compound 1358, (2R,4R)—N—((S)-1-(((2-Amino-5-chloropyridin-3-yl)methyl)amino)-1-oxopropan-2-yl)-4-phenylpyrrolidine-2-carboxamide Di-trifluoroacetate salt] |  | > 25000 nM | > 25 µM | 500 to 2500 nM |  |  | 
C[C@H](OC(=O)[C@H](N)CCc1ccccc1)C(=O)NCc1ccc(C(=N)N)cc1 [compound 1315, (S)-1-((4-Carbamimidoylbenzyl)amino)-1-oxopropan-2-yl (R)-2-amino-4-phenylbutanoate Hydrochloride] |  | < 500 nM |  |  | * (≥1.0 to <5.0-fold) |  | 
Cc1nc2cc(CNC(=O)[C@H](C)NC(=O)[C@H]3C[C@H](c4ccccc4)CN3)cc(Cl)c2[nH]1 [compound 1418, (2R,4R)—N—((S)-1-(((7-Chloro-2-methyl-1H-benzo[d]imidazol-5-yl)methyl)amino)-1-oxopropan-2-yl)-4-phenylpyrrolidine-2-carboxamide Trifluoroacetate salt] |  | 10000 to 25000 nM | > 25 µM | 2500 to 10000 nM |  |  | 
Cc1nc(N)ccc1CNC(=O)[C@H](C)NC(=O)[C@H]1C[C@H](Cc2ccc(C)c3ccccc23)CN1 [compound 1479, (2R,4S)—N—((S)-1-(((6-Amino-2-methylpyridin-3-yl)methyl)amino)-1-oxopropan-2-yl)-4-((4-methylnaphthalen-1-yl)methyl)pyrrolidine-2-carboxamide Dihydrochloride] | < 500 nM | < 500 nM |  |  | **** (≥100-fold) |  | 10 to 25 µM
C[C@H](NC(=O)[C@H]1C[C@H](c2ccccc2)CN1)C(=O)NCc1ccc(C(=N)NC(=O)OCC(F)(F)F)cc1 [compound 1305, 2,2,2-Trifluoroethyl (imino(4-(((S)-2-((2R,4R)-4-phenylpyrrolidine-2-carboxamido)propanamido)methyl)phenyl)methyl)carbamate] |  | < 500 nM | > 25 µM | 500 to 2500 nM | ** (≥5.0 to <25-fold) |  | 
Cc1cc(Cl)cc(CNC(=O)[C@H](C)NC(=O)[C@H]2C[C@@H](c3ccccc3)CCN2)c1O [compound 1365, (2R,4S)—N—((S)-1-((5-Chloro-2-hydroxy-3-methylbenzyl)amino)-1-oxopropan-2-yl)-4-phenylpiperidine-2-carboxamide Hydrochloride] | < 500 nM | < 500 nM | > 25 µM |  | **** (≥100-fold) |  | 
Cc1nc(N)ccc1CNC(=O)[C@H](C)NC(=O)[C@H]1C[C@H](c2ccccc2)CCN1 [compound 1308, (2R,4R)—N—((S)-1-(((6-Amino-2-methylpyridin-3-yl)methyl)amino)-1-oxopropan-2-yl)-4-phenylpiperidine-2-carboxamide Dihydrochloride] |  | 500 to 2500 nM |  | 500 to 2500 nM | ** (≥5.0 to <25-fold) |  | 10 to 25 µM
Cc1nc(N)ccc1CNC(=O)[C@H](C)NC(=O)c1cc(Cc2ccccc2)n[nH]1 [compound 1367, (S)—N-(1-(((6-Amino-2-methylpyridin-3-yl)methyl)amino)-1-oxopropan-2-yl)-3-benzyl-1H-pyrazole-5-carboxamide] | < 500 nM | 10000 to 25000 nM | > 25 µM |  |  |  | 
Cc1cc(Br)cc(CNC(=O)[C@H](C)NC(=O)[C@H]2C[C@H](Cc3ccccc3)CN2)c1-n1cnnn1 [compound 1436, (2R,4S)-4-Benzyl-N-((S)-1-((5-bromo-3-methyl-2-(1H-tetrazol-1-yl)benzyl)amino)-1-oxopropan-2-yl)pyrrolidine-2-carboxamide Trifluoroacetate] |  | > 25000 nM |  | 500 to 2500 nM | ** (≥5.0 to <25-fold) |  | 10 to 25 µM
Cc1nc(N)ccc1CNC(=O)[C@H](C)NC(=O)[C@H]1C[C@H](Cc2cccc(C(F)(F)F)c2)CN1 [compound 1318, (2R,4S)—N—((S)-1-(((6-Amino-2-methylpyridin-3-yl)methyl)amino)-1-oxopropan-2-yl)-4-(3-(trifluoromethyl)benzyl)pyrrolidine-2-carboxamide Dihydrochloride] | < 500 nM | < 500 nM |  |  |  |  | 
C[C@H](NC(=O)[C@H]1C[C@@H](c2ccccc2)CCN1)C(=O)NCc1ccc(C(=N)N)cc1 [compound 1230, (2R,4S)—N—((S)-1-((4-Carbamimidoylbenzyl)amino)-1-oxopropan-2-yl)-4-phenylpiperidine-2-carboxamide] |  | < 500 nM |  |  |  |  | 
C[C@H](NC(=O)[C@H](N)CCc1ccccc1)C(=O)NCc1ccc2c(N)n[nH]c2c1 [compound 1039] |  | < 25000 nM | > 25 µM |  |  |  | 
Cc1nc(N)ccc1CNC(=O)[C@H](C)NC(=O)[C@H]1C[C@H](c2cccc3ccccc23)CCN1 [compound 1342, (2R,4R)—N—((S)-1-(((6-Amino-2-methylpyridin-3-yl)methyl)amino)-1-oxopropan-2-yl)-4-(naphthalen-1-yl)piperidine-2-carboxamide Dihydrochloride] | < 500 nM | 500 to 2500 nM |  |  |  |  | 
C[C@H](NC(=O)[C@H]1C[C@](O)(c2ccccc2)CCN1)C(=O)NCc1ccc(C(=N)N)cc1 [compound 1101] |  | < 500 nM |  |  |  |  | 
C[C@H](NC(=O)C1CCC(c2ccccc2)CN1)C(=O)NCc1ccc(C(=N)N)cc1 (single isomer, unassigned) [compound 1067] |  | < 500 nM |  |  |  |  | 
(2R,4R)-4-([1,1′-Biphenyl]-3-yl)-N-((S)-1-(((6-amino-2-methylpyridin-3-yl)methyl)amino)-1-oxopropan-2-yl)pyrrolidine-2-carboxamide Di-trifluoroacetate salt [compound 1359] |  | 10000 to 25000 nM |  |  |  |  | 
C[C@H](NC(=O)[C@H](N)CCc1ccccc1)C(=O)NCCOc1ccc(N)nc1 [compound 1215] |  | < 25000 nM | > 25 µM |  |  |  | 
Cc1ccc(CC[C@@H](N)C(=O)N[C@@H](C)C(=O)NCc2ccc(C(=N)N)cc2)cc1 [compound 1043] |  | < 500 nM |  |  |  |  | 
N=C(N)c1ccc(CNC(=O)[C@@H]2CCN2C(=O)[C@H](NCC(=O)O)C2CCCCC2)cc1 [compound 999, melagatran, reference compound] |  | < 500 nM |  |  |  |  | 
C[C@H](NC(=O)c1cc(-c2cccc3ccccc23)c[nH]1)C(=O)NCc1ccc(C(=N)N)cc1 [compound 1234, (S)—N-(1-((4-Carbamimidoylbenzyl)amino)-1-oxopropan-2-yl)-4-(naphthalen-1-yl)-1H-pyrrole-2-carboxamide] | < 500 nM | < 500 nM |  |  |  |  | 
C[C@H](NC(=O)[C@H]1C[C@](O)(c2ccccc2)CN1)C(=O)NCc1ccc(C(=N)N)cc1 [compound 1071] |  | < 500 nM |  |  |  |  | 
C[C@H](NC(=O)[C@H]1C[C@H](c2ccccc2)CCN1)C(=O)NCc1ccc(C(=N)N)cc1 [compound 1485, (2R,4R)—N—((S)-1-((4-carbamimidoylbenzyl)amino)-1-oxopropan-2-yl)-4-phenylpiperidine-2-carboxamide Dihydrochloride] |  | < 500 nM |  |  |  |  | 
